Results as given in patent US20090069180A1 (priority 2006, published 2009).

Columns and labels:
Pyricularia oryzae = format: cell-based; settings: 125 ppm, microtiter plate, absorption at 405 nm on day 7 after inoculation, relative to active compound-free control

Row | SMILES | relative pathogen growth (Pyricularia oryzae) [%] | melting point [°C]
1 | CONC(=N)c1nc(Cl)c(/C(Br)=C(/Cl)Br)c(N2CCCC2C)n1 (stereo not drawn) [C-4, N-Methoxy-4-chlor-5-((E)-2-chloro-1,2-dibromovinyl)-6-(2-methyl-pyrrolidin-1-yl)-2-pyrimidinecarboximidamide] | 0 | 
2 | CC1CCCN1c1nc(C#N)nc(Cl)c1/C(Br)=C(\Br)[Si](C)(C)C (stereo not drawn) [C-1, 4-Chloro-2-cyano-5-((E)-1,2-dibromo-2-trimethylsilylvinyl)-6-(2-methylpyrrolidin-1-yl)-pyrimidine] | 0 | 166 to 168
